Row | SMILES | melting point
1 | Brc1ccc(Oc2ncccn2)cc1 | 114 to 116 °C
2 | CCCCN(c1ccccc1)S(=O)(=O)c1cccc(C(=O)O)c1 | 161 to 163 °C
3 | Cc1cccc(S(=O)(=O)Cl)c1C#N | 74 to 76 °C
4 | CCS(=O)(=O)Nc1ccccc1C(=O)O | 145 to 147 °C
5 | O=C(O)CNS(=O)(=O)c1ccc(Cl)cc1 | 177 to 179 °C
6 | Cc1cccn2c(=O)cc(Cl)nc12 | 124 to 126 °C
7 | Cn1cnnc1S(=O)(=O)O | 170 to 172 °C
8 | O=C1NC(=O)C(F)(F)c2ccccc21 | 109 to 111 °C
9 | COCc1nc(OC)c2c(C)c(C(=O)O)sc2n1 | 188 to 190 °C
10 | O=C(O)CCc1ccc2ccccc2c1 | 135 to 137 °C
11 | COc1ccc(CC(N)=NO)cc1OC | 135 to 137 °C
12 | COc1ccc(-c2cc(N)on2)c(OC)c1OC | 161 to 163 °C
13 | CC(CC(=O)O)c1ccccc1Br (stereo not given) | 61 to 63 °C
14 | CC(NC(=O)CCC(=O)O)C(=O)c1ccc(Br)cc1 (stereo not given) | 136 to 138 °C
15 | CC(C)(C)c1cc(N)n(CCO)n1 | 102 to 104 °C
16 | Cc1ccnc(N)c1C#N | 148 to 150 °C
17 | CC(C)(C)OC(=O)N1CCCCC1(C)C(=O)O (stereo not given) | 92 to 94 °C
18 | Nc1ccc(F)c(NS(=O)(=O)c2ccccc2)c1 | 143 to 145 °C
19 | CCCc1nnc(S)n1CC(=O)O | 226 to 228 °C
20 | CN(C)S(=O)(=O)c1ccc(F)c([N+](=O)[O-])c1 | 118 to 120 °C
21 | Cn1cc(C=O)nn1 | 103 to 105 °C
22 | CCOC(=O)c1c(C)n(Cc2ccccc2)c2ccc(O)cc12 | 198 to 200 °C
23 | CCOC(=O)c1c(CC(C)C)csc1N | 58 to 60 °C
24 | Nc1nc2ccc(OCC(F)(F)F)cc2s1 | 134 to 136 °C
25 | O=C(O)CCCn1nnc(-c2ccccc2)n1 | 83 to 85 °C
26 | CC(C)Cn1c(=O)[nH]c(=O)c2c(S)nc(CC3CC4CCC3C4)nc21 (stereo not given) | 311 to 313 °C
27 | Cc1ccc(S(=O)(=O)OCc2nc3ccccc3s2)cc1 | 108 to 110 °C
28 | O=C1COc2cc(S)c(Cl)cc2N1 | 256 to 258 °C

Row | SMILES | melting point
29 | Nc1ccc(N2C(=O)c3ccccc3C2=O)c(Cl)c1 | 204 to 206 °C
30 | Nc1cc(F)c(F)cc1[N+](=O)[O-] | 107 to 108 °C
31 | CN(C)C(=O)COc1cccc(C(=O)O)c1 | 193 to 195 °C
32 | O=C(O)C1CCN(S(=O)(=O)c2ccc(Br)s2)CC1 | 166 to 168 °C
33 | Cn1cc(C=O)c(-c2ccc([N+](=O)[O-])cc2)n1 | 175 to 177 °C
34 | CC(C)CC(C(=O)O)N1CCCCC1=O (stereo not given) | 182 to 184 °C
35 | Cc1cc(N2CCCS2(=O)=O)ccc1C(=O)O | 249 to 251 °C
36 | COC(=O)c1ccc2c(c1)CCN2 | 74 to 76 °C
37 | OCCn1nc(-c2ccccc2)cc1-c1ccccc1 | 96 to 98 °C
38 | Nc1ccccc1NC(=O)c1ccncc1 | 179 to 181 °C
39 | Nc1cc(Cl)ccc1N1CCC(CO)CC1 | 144 to 146 °C
40 | NC(=S)c1cccnc1N | 124 to 126 °C
41 | CC(=O)c1ccc(N)nc1 | 107 to 109 °C
42 | CC(C)(C)C(N)CN1CCc2ccccc2C1 (stereo not given) | 62 to 64 °C
43 | Cc1nn(C)c(C)c1NC(=O)C(C)Cl (stereo not given) | 120 to 122 °C
44 | O=C(O)c1ccc(-n2cc(Br)cn2)cc1 | 273 to 275 °C
45 | COc1ccc(S(N)(=O)=O)cc1Br | 139 to 141 °C
46 | O=C(O)c1cnc2c(c1)c(=O)[nH]c(=O)n2Cc1ccccc1 | 278 to 280 °C
47 | NCCN1C(=O)Cc2ccccc21 | 88 to 90 °C
48 | Cc1cccc(OCC(O)CN)c1 (stereo not given) | 75 to 77 °C
49 | Cc1cc(C)n(-c2ccc(C(=O)O)cn2)n1 | 241 to 243 °C
50 | O=C(O)c1ccc(Oc2cccc(Br)c2)cc1 | 151 to 153 °C
51 | CC(C)(C)OC(=O)N1CCCC(C(=O)O)C1 (stereo not given) | 160 to 162 °C
52 | NS(=O)(=O)c1ccc(Br)cn1 | 170 to 172 °C
53 | COc1ccc2c(-c3cccnc3)cc(S)nc2c1 | 269 to 271 °C
54 | CCOc1ccccc1Oc1ccccc1C(=O)O | 96 to 98 °C
55 | FC(F)(F)c1cc[nH]n1 | 45 to 47 °C
